System: SW-620
Format: cell-based
Conditions: SW-620, Colon Cancer

NCC(=O)NS(=O)(=O)OC[C@H]1O[C@@H](n2cnc3c(N)ncnc32)[C@H](O)[C@@H]1O [GlySA, glycylsulfamoyladenosine]
GI50 (Homo sapiens): 3.71 µM
CC50 (Homo sapiens, read-out: LC50 (the source's name)): > 100 µM
LC50/GI50: >26.9

— patent US20190381086A1, “INHIBITION OF NEDDYLATION USING GLYCYL-tRNA SYNTHETASE INHIBITORS” (The Scripps Research Institute, priority 2015, published 2019)
